Assay results taken from patent US20260061027A1 (NeuroTher, LLC, priority 2024, published 2026).

Assay: In vitro metabolic stability of hepatocytes
Details: Mouse hepatocytes, 0.5 ×10^6 cells/mL

## O=c1ccc2ccc(O)cc2o1 [7-Hydroxycoumarin]
  T1/2: 3.0 min
